Measurements from patent publication US6204293A, “Inhibitors of protein isoprenyl transferases” (University of Pittsburgh, priority 1998, dated 2001).
Counter-ions that a name gives are not always drawn.

These molecules were tested against T1, Rat brain protein farnesyltransferase (Rattus norvegicus, UniProt Q02293+Q04631) (assay: % inhibition of farnesylation, scintillation proximity assay with biotin-K Ras B fragment). Settings: Table 1; 1 × 10^-5 M.
T1 construct: Rat brain protein farnesyltransferase activity is measured; from tissue; host or cells: rat brain
Assay type: biochemical
Summary of the method: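 Rat brain enzyme, purified through three steps, in a scintillation proximity assay kit with biotin-K Ras B fragment substrate at 0.1 mM final. Value is % inhibition of farnesylation.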

T1 sequence (Q02293 whole entry, the tested form may be a part, one chain of several): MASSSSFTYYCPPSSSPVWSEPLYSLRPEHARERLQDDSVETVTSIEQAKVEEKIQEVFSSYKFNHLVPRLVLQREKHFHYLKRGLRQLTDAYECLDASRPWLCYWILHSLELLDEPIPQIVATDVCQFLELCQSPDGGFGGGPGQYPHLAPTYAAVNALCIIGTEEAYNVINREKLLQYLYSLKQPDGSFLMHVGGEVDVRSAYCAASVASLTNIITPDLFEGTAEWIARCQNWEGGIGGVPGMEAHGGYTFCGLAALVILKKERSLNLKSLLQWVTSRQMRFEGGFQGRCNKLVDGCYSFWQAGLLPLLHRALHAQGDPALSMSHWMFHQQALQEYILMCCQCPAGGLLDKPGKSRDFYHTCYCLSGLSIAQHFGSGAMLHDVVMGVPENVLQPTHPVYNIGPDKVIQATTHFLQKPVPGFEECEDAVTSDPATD

SMILES | % inhibition at 1 × 10^-5 M [%]
CSCC[C@H](NC(=O)c1ccc(NC(=O)[C@@H]2C[C@@H](O)CN2)cc1-c1ccccc1)C(=O)O [Example 952] | > 50
CSCC[C@H](NC(=O)c1ccc(CNc2ccc(O)cc2)cc1-c1ccccc1)C(=O)O [Example 689] | 73
CSCC[C@H](NC(=O)c1ccc(CNc2ccc(C(=O)c3ccccc3)cc2)cc1-c1ccccc1)C(=O)O [Example 702] | 79
CSCC[C@H](NC(=O)c1ccc(CNC(CO)Cc2ccccc2)cc1-c1ccccc1)C(=O)O (stereo partly shown) [Example 714] | 56
CSCC[C@H](NC(=O)c1ccc(CNc2ccc(C(C)C)cc2)cc1-c1ccccc1)C(=O)O [Example 692] | 74

Same assay, conditions: Table 2; 1 × 10^-6 M

SMILES | % inhibition at 1 × 10^-6 M [%]
CSCC[C@H](NC(=O)c1ccc(C[C@H]2CC[C@@H](c3ccccc3)CC2)cc1-c1ccccc1C)C(=O)O [Example 790] | 88
CSCC[C@H](NC(=O)c1ccc(/C=C/CC(O)c2ccc3ccccc3c2)cc1-c1ccccc1C)C(=O)O (stereo partly shown) [Example 474] | 92
Cc1ccccc1-c1cc(CN(C)C(C)(C)Cc2ccccc2)ccc1C(=O)N[C@@H](CCS(C)(=O)=O)C(=O)O [Example 313] | 94
CSCC[C@H](NC(=O)c1ccc(NC(=O)Cc2ccc(C)cc2)cc1-c1ccccc1C)C(=O)O [Example 541] | 37
CSCC[C@H](NC(=O)c1ccc(CN2CCN(C(=O)OC(C)(C)C)CC2)cc1-c1ccccc1C)C(=O)O [Example 866] | 62
CSCC[C@H](NC(=O)c1ccc(NC(=O)OCc2cncs2)cc1-c1ccccc1C)C(=O)O [Example 902] | 85
COc1ccc(CC(=O)Nc2ccc(C(=O)N[C@@H](CCSC)C(=O)O)c(-c3ccccc3C)c2)cc1 [Example 542] | 67
CSCC[C@H](NC(=O)c1ccc(CNCc2ccco2)cc1-c1ccccc1)C(=O)[O-].[Li+] [Example 302] | 31
CSCCC(CO)NCc1ccc(C(=O)N[C@@H](CCSC)C(=O)O)c(-c2ccccc2)c1 (stereo partly shown) [Example 633] | 32
CSCC[C@H](NC(=O)c1ccc(CN(CC(C)C)C(CC2CCCCC2)CC2CCCCC2)cc1-c1ccccc1C)C(=O)O [Example 908] | 88

Same assay, conditions: Table 3; 1 × 10^-7 M

SMILES | % inhibition at 1 × 10^-7 M [%]
CSCC[C@H](NC(=O)c1ccc(CCc2ccc(Oc3ccccc3N)cc2)cc1-c1ccccc1C)C(=O)O [Example 857] | 92
CSCC[C@H](NC(=O)c1ccc(CN[C@H](CSc2ccccc2)CC2CCCCC2)cc1-c1ccccc1C)C(=O)O [Example 623] | 96
CSCC[C@H](NC(=O)c1ccc(CCc2ccc(Oc3ccccc3)cc2)cc1-c1ccccc1C)C(=O)[O-].[Li+] [Example 462] | 91
CSCC[C@H](NC(=O)c1ccc(CNc2ccc(N3CCOCC3)cc2)cc1-c1ccccc1C)C(=O)O [Example 863] | 72
CSCC[C@H](NC(=O)c1ccc(/C=C/c2ccc(Oc3cccc([N+](=O)[O-])c3)cc2)cc1-c1ccccc1C)C(=O)O [Example 861] | 65
CSCC[C@H](NC(=O)c1ccc(CCc2ccccc2Oc2ccccc2)cc1-c1ccccc1C)C(=O)[O-].[Li+] [Example 455] | 83

Same assay, conditions: Table 4; 1 × 10^-8 M

SMILES | % inhibition at 1 × 10^-8 M [%]
CSCC[C@H](NC(=O)c1ccc(CN(CCc2ccccc2)c2cncnc2)cc1-c1ccccc1C)C(=O)O [Example 518] | 90
CSCC[C@H](NC(=O)c1ccc(CN[C@H](CSc2ccccc2C)CC2CCCCC2)cc1-c1ccccc1C)C(=O)O [Example 767] | 97
CSCC[C@H](NC(=O)c1ccc(CON=C(Cc2ccccc2)Cc2ccccc2)cc1-c1ccccc1C)C(=O)O [Example 888] | 86
CSCC[C@H](NC(=O)c1ccc(CN(Cc2ccc3c(c2)OCO3)c2cnccn2)cc1-c1ccccc1C)C(=O)O [Example 838] | 92

Same assay, conditions: Table 6; * footnote 0.1 μM (title: 0.1 mM)

SMILES | % inhibition at 0.1 μM (*) [%]
CCC(=O)N(CCCc1ccc(C(=O)N[C@@H](CCSC)C(=O)O)c(-c2ccccc2C)c1)C1CCCCC1 [Example 1145] | 83

Same assay, conditions: Table 6; ** footnote 0.01 μM (title: 0.01 mM)

SMILES | % inhibition at 0.01 μM (**) [%]
COCCN(CCC1CCCCC1)Cc1ccc(C(=O)N[C@@H](CCSC)C(=O)O)c(-c2ccccc2C)c1 [Example 1104] | 89

Same assay, conditions: read-out: % inhibition at 0.01 μM (**)

SMILES | inhibition at 0.01 µM [%]
CSCC[C@H](NC(=O)c1ccc(COCc2ccnnc2)cc1-c1ccccc1C)C(=O)O [Example 1221, N-[4-(Pyridazin-4-ylmethoxymethyl)-2-(2-methylphenyl)benzoyl]methionine lithium salt] | 82
CCCCOCC(CC1CCCCC1)OCc1ccc(C(=O)N[C@@H](CCSC)C(=O)O)c(-c2ccccc2C)c1 (stereo partly shown) [Example 1308, N-[4-(3-Cyclohexyl-1-butoxyprop-2-yloxymethyl)-2-(2-methylphenyl)benzoyl]methionine Lithium Salt] | 91

Same assay, conditions: read-out: % inhibition at 0.01 μM (**); Table 6; ** footnote 0.01 μM (title: 0.01 mM)

SMILES | inhibition at 0.01 µM [%]
CSCC[C@H](NC(=O)c1ccc(CO[C@H](CO)CC2CCCCC2)cc1-c1ccccc1C)C(=O)O [Example 1049, N-[4-(3-cyclohexyl-1-hydroxyprop-2-yloxymethyl)-2-(2-methylphenyl)benzoyl]methionine, lithium salt] | 93

Same assay, conditions: read-out: % inhibition at 0.1 μM (*); Table 6; * footnote 0.1 μM (title: 0.1 mM)

SMILES | inhibition at 0.1 µM [%]
CSCC[C@H](NC(=O)c1ccc(COC[C@@H](O)CC2CCCCC2)cc1-c1ccccc1C)C(=O)O [Example 1314, N-[4-(3-Cyclohexyl-2-hydroxyprop-1-yloxymethyl)-2-(2-methylphenyl)benzoyl]methionine Lithium Salt] | 96
CCCCC(OCc1ccc(C(=O)N[C@@H](CCSC)C(=O)O)c(-c2ccccc2C)c1)c1sc(C)nc1C (stereo partly shown) [Example 1098, N-[4-1-(2,4-dimethylthiazol-5-yl)pentyloxy)methyl-2-(2-methylphenyl)benzoyl]methionine lithium salt] | 60
CSCC[C@H](NC(=O)c1ccc(COCc2ccc(CO)cc2)cc1-c1ccccc1C)C(=O)O [Example 1045, N-[4-(4-hydroxymethylbenzyloxymethyl)-2-(2-methylphenyl)benzoyl]methionine,lithium salt] | 86
CSCC[C@H](NC(=O)c1ccc(CO[C@H](COCCC(C)(C)C)CC2CCCCC2)cc1-c1ccccc1C)C(=O)O [Example 1309, N-[4-(3-Cyclohexyl-1-(3,3-dimethylbut-1-yloxy)prop-2-yloxymethyl)-2-(2-methylphenyl)benzoyl]methionine Lithium Salt] | 96

Same assay, conditions: read-out: % inhibition at 1 × 10^-6 M

SMILES | inhibition at 1 µM [%]
CSCC[C@H](NC(=O)c1ccc(OCCCc2ccccc2)cc1-c1ccccc1C)C(=O)O [Example 879, N-[4-(3-phenylpropoxy)-2-(2-methylphenyl)benzoyl]methionine, lithium salt] | 95
CSCC[C@H](NC(=O)c1ccc(CSCc2ccccc2C)cc1-c1ccccc1C)C(=O)O [Example 557, N-[4-(2-methylbenzyl)thiomethyl-2-(2-methylphenyl)benzoyl]methionine, lithium salt] | 93

Same assay, conditions: read-out: % inhibition at 1 × 10^-6 M; Table 2; 1 × 10^-6 M

SMILES | inhibition at 1 µM [%]
CSCC[C@H](NC(=O)c1ccc(OC/C=C(\C)CC/C=C(\C)CCC=C(C)C)cc1-c1ccccc1C)C(=O)O [Example 547, N-[4-farnesyloxy-2-(2-methylphenyl)benzoyl]methionine, lithium salt] | 91
CSCC[C@H](NC(=O)c1ccc(COC2CCN(Cc3ccccc3)CC2)cc1-c1ccccc1C)C(=O)O [Example 807, N-[4-(1-benzylpiperidin-4-yloxymethyl)-2-(2-methylphenyl)benzoyl]methioninelithium salt] | 90
CSCC[C@H](NC(=O)c1ccc(OCCOc2ccccc2)cc1-c1ccccc1C)C(=O)O [Example 561, N-[4-(2-phenoxy)ethoxy-2-(2-methylphenyl)benzoyl]methionine] | 91

Same assay, conditions: read-out: % inhibition at 1 × 10^-7 M

SMILES | inhibition at 0.1 µM [%]
CSCC[C@H](NC(=O)c1ccc(COCCc2ccco2)cc1-c1ccccc1C)C(=O)O [Example 531, N-[4-(2-furan-2-ylethoxymethyl)-2-(2-methylphenyl)benzoyl]methionine lithium salt] | 74

Same assay, conditions: read-out: % inhibition at 1 × 10^-7 M; Table 3; 1 × 10^-7 M

SMILES | inhibition at 0.1 µM [%]
CSCC[C@H](NC(=O)c1ccc(CSc2nnc(N)s2)cc1-c1ccccc1C)C(=O)O [Example 734] | 49
CSCC[C@H](NC(=O)c1ccc(COCc2ccccc2)cc1-c1ccccc1C)C(=O)NS(=O)(=O)c1ccc(Cl)cc1 [Example 581, 4-chlorobenzenesulfonyl N-2-[4-(benzyloxymethyl)-2-(2-methylphenyl)benzoyl]amino-4-methylthiobutanamide] | 96

Same assay, conditions: read-out: % inhibition at 1 × 10^-8 M

SMILES | inhibition at 0.01 µM [%]
CCCCC(CCCC)OCc1ccc(C(=O)N[C@@H](CCSC)C(=O)O)c(-c2ccccc2C)c1 [Example 942, N-[4-(nonan-5-yloxymethyl)-2-(2-methylphenyl)benzoyl]methionine lithium salt] | 58

Same assay, conditions: read-out: % inhibition at 1 × 10^-8 M; Table 4; 1 × 10^-8 M

SMILES | inhibition at 0.01 µM [%]
CCSC[C@H](CC1CCCCC1)OCc1ccc(C(=O)N[C@@H](CCSC)C(=O)O)c(-c2ccccc2C)c1 [Example 606, Lithium Salt] | 93
CSCC[C@H](NC(=O)c1ccc(CO[C@H](CSC(C)(C)C)CC2CCCCC2)cc1-c1ccccc1C)C(=O)O [Example 883, N-[4-(3-Cyclohexyl-1-t-butylthiopropan-2-yl)oxymethyl-2-(2-methylphenyl)benzoyl]methionine lithium salt] | 91
CSCC[C@H](NC(=O)c1ccc(COCc2ccc(-c3ccc(Cl)cc3)o2)cc1-c1ccccc1C)C(=O)NS(=O)(=O)c1ccccc1 [Example 819, N-[4-(5-(4-chlorophenyl)furan-2-ylmethoxymethyl)-2-(2-methylphenyl)benzoyl]methionine benzenesulfonimide] | 76
